Reference: patent US8343475B2, “Small cationic antimicrobial peptides” (priority 2006, dated 2013)
Converted amounts (≈) assume the structure as drawn. Residues, ends and D or L forms follow the SMILES beside them.

Assays:
Assay type in all cases: cell-based
[1] = tested on: Pseudomonas aeruginosa PAO1 strain H103; conditions: PAO1
Procedure, shortened: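 Modified broth microdilution MIC in Mueller Hinton medium, peptides diluted in 0.01% acetic acid/0.2% BSA, polypropylene plates. Inoculum 2-7×10^5 CFU/ml, overnight at 37 °C; MIC is the lowest concentration with no visible growth.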

[2] = tested on: Enterococcus faecalis ATCC29212; conditions: ATCC29212
Procedure, shortened: (§1)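 Modified microdilution, MH broth, polypropylene wells. Peptide dilutions (10× stocks in 0.01% HOAc/0.2% BSA) mixed 1:10 with medium; cells 2-7×10^5 CFU/ml; 37° C overnight; endpoint no growth.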

Escherichia coli UB1005 = conditions: UB1005
Procedure, shortened: as §1

[3] = tested on: Staphylococcus aureus ATCC25923; conditions: ATCC25923
Procedure, shortened: as §1

[4] = tested on: clinical isolate of Staphylococcus epidermidis; conditions: clinical isolate of
Procedure, shortened: as §1

[5] = tested on: lab isolate of Candida albicans; conditions: lab isolate of
Procedure, shortened: as §1

[6] = tested on: wild-type Salmonella enterica ssp. typhimurium
Procedure, shortened: as §1

[7] = tested on: IL8 release by human PBMC; test: Chemokine induction in PBMC (capture ELISA); conditions: 20 or 100 μg/ml peptide, 24 hours (FIG. 14)
Experimental: FIG. 14. Induction of IL8 release by 7.5×10^5 human PBMC in response to treatment with 20 or 100 μg/ml of different peptides for 24 hours.
(§2) Venous blood (20 ml) from healthy volunteers was collected in Vacutainer® collection tubes containing sodium heparin as an anticoagulant (Becton Dickinson, Mississauga, ON) in accordance with UBC ethical approval and guidelines. Blood was diluted 1:1 with complete RPMI 1640 medium and separated by centrifugation over a Ficoll-Paque® Plus (Amersham Biosciences, Piscataway, N.J., USA) density gradient. White blood cells were isolated from the buffy coat, washed twice in RPMI 1640 complete medium, and the number of peripheral blood mononuclear cells (PBMC) was determined by trypan blue exclusion. PBMC (5×10^5) were seeded into 12-well tissue culture dishes (Falcon; Becton Dickinson) at 0.75 to 1×10^6 cells/ml at 37° C. in 5% CO2. The above conditions were chosen to mimic conditions for circulating blood monocytes entering tissues at the site of infection via extravasation.
(§3) Following incubation of the cells under various treatment regimens, the tissue culture supernatants were centrifuged at 1000×g for 5 min, then at 10,000×g for 2 min to obtain cell-free samples. Supernatants were aliquoted and then stored at −20° C. prior to assay for various chemokines by capture ELISA (eBioscience and BioSource International Inc., CA, USA respectively)

[8] = tested on: CXCL1 (Gro-α) release by human PBMC; test: Chemokine induction in PBMC (capture ELISA); conditions: background (196) subtracted
Procedure, shortened: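 Human PBMC from healthy donors' heparinised blood (Ficoll), 7.5×10^5 cells treated with 20 or 100 μg/ml peptide for 24 h at 37° C, 5% CO2. Cell-free supernatants assayed for CXCL1 by capture ELISA.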

human PBMC = test: Adjuvant properties: cytokine/chemokine induction by peptides alone and with CpG oligonucleotides and polyphosphazene P6; conditions: peptide alone 20 ug/mL, background subtracted
Experimental: as §2, §3
It is well accepted that vaccine immunization is best achieved by co-administration of an adjuvant. The precise mechanism by which these adjuvants work has eluded immunologists but appears to work in part by upregulating elements of innate immunity that smooth the transition to adaptive (antigen-specific) immunity (Bendelac A and R. Medzhitov. 2002. Adjuvants of immunity: Harnessing innate immunity to promote adaptive immunity J. Exp. Med. 195:F19-F23). Within this concept there are several possible avenues by which adjuvants might work including the attraction of immune cells into the site at which a particular antigen is injected, through e.g., upregulation of chemokines, the appropriate activation of cells when they reach that site, which can be caused by local cell or tissue damage releasing endogenous adjuvants or through specific cell activation by the adjuvants, and the compartmentalization of immune responses to the site of immunization (the so-called “depot” effect). […] Therefore we studies the ability of our small host defence peptides to upregulate adjuvant responses in both human PBMC and cord blood mononuclear cells (CBMC) (representing the responses of blood cells from neonates), both alone (Table 10 and 11) and in combination with other proposed adjuvant agents that might work through other mechanisms such as CpG oligodeoxy ribonucleotides (TLR9 agionists that activate cells through interaction with TLR9 and fit into 3 different classes A=molecule 2336, B=10103 and C=2395), and polyphosphazene P6 (which induces a depot effect).

## CC[C@H](C)[C@H](N)C(=O)N[C@@H](Cc1c[nH]c2ccccc12)C(=O)N[C@H](C(=O)N[C@H](C(=O)N[C@@H](Cc1c[nH]c2ccccc12)C(=O)N[C@@H](CCCNC(=N)N)C(=O)N[C@@H](CCCNC(=N)N)C(N)=O)[C@@H](C)CC)C(C)C [HH18, IWVIWRR-NH2] (H-IWVIWRR-NH2; N-terminus assumed)
[1]
  MIC P. aerug: 50 µg/mL (≈ 48.7 µM)
[2]
  MIC E. faecalis: 25 µg/mL (≈ 24.3 µM)
Escherichia coli UB1005
  MIC E. coli: 6 µg/mL (≈ 5.84 µM)
[3]
  MIC S. aureus: 25 µg/mL (≈ 24.3 µM)
[4]
  MIC S. epi.: 6 µg/mL (≈ 5.84 µM)
[5]
  MIC C. albicans: 25 µg/mL (≈ 24.3 µM)
[6]
  MIC S. typhi: 12.5 µg/mL (≈ 12.2 µM)
[7]
  induction of IL8: strongest abilities to induce this chemokine
[8]; 20 μg/ml peptide
  Chemokine induction Gro-α: 865 pg/mL
[8]; 100 μg/ml peptide
  Chemokine induction Gro-α: 2964 pg/mL
Human PBMC
  Cytokines induced: Gro-α: 143 pg/mL
  Cytokines induced: IL-6: 180 pg/mL
  Cytokines induced: IL-8: 2558 pg/mL
  Cytokines induced: MCP-1: 64 pg/mL
  Cytokines induced: MCP-3: 3 pg/mL
  Cytokines induced: TNF-α: 56 pg/mL
